# Assay results from US20150284683A1, “METHOD, COMBINATION AND/OR COMPOSITION FOR INDUCING CARDIOMYOCYTE DIFFERENTATION” (SINGAPORE HEALTH SERVICES LTD, priority 2012, published 2015).
# Key:
# Format in all cases: cell-based, human
# H3-Nkx2.5-GFP line [1] = assay: Spin EB contraction during protocol standardization (Example 2); settings: only 10 uM SB203580; EBs of 2,500 to 7,500 cells
# Experimental: Briefly, hiPSC/hESC lines were pre-treated with 10 μM Y27632 (Stem Cell Technologies, VA, Canada) for 4 h before dissociating them to single cells with. Accutase (Stem Cell Technologies, VA, Canada). Cells were aggregated in spin EBs of 5000 cells/EB in AggreWell™ 800 (Stem Cell Technologies, VA, Canada) in media A (mTesR1: DMEM-F12-B27 (1:1) with 4 mg/mL PVA) with Ascorbic acid (284 μM) and BMP4 ([…]) and centrifuged at 300 g for 5 min and incubated overnight. […] […] […] EBs were plated on day 8 in EB2 medium (DMEM-F12 with 2% FBS) on 0.1% gelatin coated dishes. Beating areas were clearly observed between day 10-14 depending on different cell lines. Beating areas were manually dissected out after day 14 of differentiation and utilized for all experiments.
# To maintain consistency in differentiation efficiency, an EB based protocol was utilised to recapitulate early cardiac development that hinges on stage-specific activation and inhibition′ of Wnt/β-catenin along with BMP modulation. All initial experiments were performed using H3-Nkx2.5-GFP line to standardize the protocol. Spin EBs of different sizes (1,000, 2,500, 5,000, 7,500 and 10,000 cells/EB) were made and it was observed that EBs of 2,500 to 7,500 cells gave contracting cardiomyocytes by day 14-15 using only 10 uM SB203580 (FIG. 11B; Non-treated), with highest efficiencies with 5,000 cell EBs. Next. […]
# hiPSC C2 cell line = assay: Embryoid body (EB) cardiac differentiation, beating EBs, hiPSC C2
# Experimental: (§1) Human ES cells (H9; Wicell, USA) and iPS cells (MSnviPSNF2 (C2) and MSnviPSNF3 (C3); both described in Mehta et al., 2011) were maintained on 1% matrigel (BD Biosciences, CA, USA) and grown in chemically defined mTeSR1 medium (Stem Cell Technologies, VA, Canada). Differentiated areas (<10%) were manually removed periodically with a scraper and prior to passaging. Pluripotent stem cells were subsequently washed with DMEM-F12 (Invitrogen, CA, USA) and incubated with 1 mg/ml dispase (Stem Cell Technologies, VA, Canada) for 5-7 minutes. Subsequently, cells colonies were washed using DMEM-F12 and carefully cut into small clumps of approximately 50-70 μm in size before being scrapped from the surface of the culture dishes. […]
# (§2) Subsequently, addition of different small molecules (components) were carried out at various stages of differentiation, either alone or in combination with at least one other component (FIG. 1): SB 203580 daily from day 2 through to day 8 from EB induction; Wnt modulator IWP4 daily from day 4 through to day 8 from EB induction, CSA daily from day 4 through to day 8 from EB induction, and ROS activator H2O2 on day 8 (15 min prior to plating). […] All EBs were evaluated morphologically under the microscope at 4× magnification for 10-15 seconds. […]
# hESC (H9) cell line = assay: Embryoid body (EB) cardiac differentiation, beating EBs, hESC H9; settings: SB203580 5 μM day 2 to day 8
# Experimental: as §1, §2
# hiPSC C3 cell line = assay: Embryoid body (EB) cardiac differentiation, beating EBs, hiPSC C3
# Experimental: as §1, §2
# H3-Nkx2.5-GFP line [2] = assay: Real-time PCR gene expression during standardization of differentiation (Example 2); settings: Treated S1+S2+VEGF
# Experimental: For real-time reverse-transcription polymerase chain reaction (qRT-PCR) analysis, RNA was isolated with the RNeasy kit (Qiagen GmbH, Hilden, Germany). One μg of total RNA was converted to complementary DNA. by Superscript III first-strand synthesis system (Invitrogen, CA, USA). cDNA template (5 ng) was used from each sample and SYBR green real-time PCR studies were performed using Quantifast kit (Qiagen GmbH, Hilden, Germany) and primer (Supplementary table 1) as per the kit instructions. Samples were cycled with RotorGene Q (Qiagen GmbH, Hilden, Germany) as follows: 5 minutes at 95° C., followed by 40 cycles of 10 seconds at 95° C. and 30 second extension at 60° C. All experiments were performed in triplicates. Relative quantification was calculated according to the ΔΔCt method for quantitative real-time PCR (using an endogenous control gene, GAPDH). For each gene, the expression at a specific day was then normalized by its baseline values. Heatmaps were generated from Ct values using Genesis software.
# To maintain consistency in differentiation efficiency, an EB based protocol was utilised to recapitulate early cardiac development that hinges on stage-specific activation and inhibition′ of Wnt/β-catenin along with BMP modulation. All initial experiments were performed using H3-Nkx2.5-GFP line to standardize the protocol. […]
# [3] = SB203580 5 μM day 2-8, without or with CSA 3 μg/ml day 4-8, 21 days
# [4] = titration 1, 3, 5, 7 μM with SB203580 5 μM and CSA 3 μg/ml
compound,measurement,setting,value
"C[S+]([O-])c1ccc(-c2nc(-c3ccc(F)cc3)c(-c3ccncc3)[nH]2)cc1 (centres unmarked) [SB203580, 4-[4-(4-fluorophenyl)-2-(4-methylsulfinylphenyl)-1H-imidazol-5-yl]pyridine]",day by which EBs gave contracting cardiomyocytes,H3-Nkx2.5-GFP line [1],14 to 15 days
same,cardiac-inducing effect,hiPSC C2 cell line; [3],no cardiac-inducing effect
same,day spontaneous beating clusters were first observed,hESC (H9) cell line,14 days
same,percentage of total EBs plated found to be beating,hESC (H9) cell line; after 21 days,16.6%
same,cardiac-inducing effect,hiPSC C3 cell line; [3],no cardiac-inducing effect
"COc1ccccc1-n1c(SCC(=O)Nc2nc3ccc(C)cc3s2)nc2c(c1=O)SCC2 [IWP4, 2-(3,4,6,7-tetrahydro-3-(2-methoxyphenyl)-4-oxothieno[3,2-d]pyrimidin-2-ylthio)-N-(6-methylbenzo[d]thiazol-2-yl)acetamide]",IWP4 concentration at which induction of contracting loci peaked,hiPSC C2 cell line; [4],5 µM
same,IWP4 concentration at which induction of contracting loci peaked,hiPSC C3 cell line; [4],5 µM
VEGF,gene expression change,H3-Nkx2.5-GFP line [2],substantially increased gene expression levels of Wnt11
